Experimental data reported in patent US7067145B2, “Use of arachidonic acid for enhanced culturing of fish larvae and broodstock” (University of Maryland Biotechnology Institute, priority 2000, dated 2006).
Several values for one entry are separate records, joined by “and”; a condition that tells them apart may be missing. Equal values may be shown once.

Experiments:
[1] = test system: striped bass (M. saxatilis) larvae; experiment: Striped bass larvae feeding experiment (day 24-46) on Artemia enriched with DHA/AA emulsions: growth, survivorship; assay type: in vivo, Morone saxatilis; settings: day 46
Method: Newly hatched striped bass (M. saxatilis) larvae were obtained from the Aquaculture Research Center (ARC) of the Center of Marine Biotechnology (COMB), University of Maryland. Larvae were raised for 17 days post hatching on rotifers, Bracionus plicatilis (2-5 rotifers ml^−1), which were grown separately on fresh-water Chlorella sp. paste (0.5 g/10^6 rotifers/day, obtained from Martek BioSci. Inc. Columbia, Md.).
Seventeen days post-hatched larvae were randomly distributed in eighteen 60-liter rearing tanks at an initial density of 160 larvae per tank. The rearing tanks were gently aerated and the water volume exchanged 1-2 times per day with biofiltered, UV treated recirculating water. A 14:10 h light:dark photoperiod cycle was maintained using fluorescent lights (Daylight; 40 watts; 800-1200 lux at the water surface). Temperature was maintained at 24±2° C. and salinity at 2-6 psu. Water quality was monitored daily, and levels of total NH3, unionized N-3, NO2 and pH were maintained below 0.2 ppm, 0.001 ppm, 0.3 ppm and at 8.02, respectively, by partial replacement with fresh water.
Newly hatched Artemia nauplii were introduced to the larvae from day 17 until day 24 (once a day at 20-40 nauplii 1^−1), while rotifer concentration was reduced gradually to a complete removal by day 24.
Larvae then were fed twice daily with Artemia nauplii, enriched with nine dietary emulsions containing varying proportions of DHA and AA.
A 3×3 factorial design with two nutritional factors (DHA and AA) at three levels each and in duplicate blocks was used. This experimental design allowed for the simultaneous study of the effect of increasing dietary levels of DHA and AA either alone or in various combination of both fatty acids. Nine different emulsions having varying proportions of DHA-rich triacylglycerols from heterotrophically grown algae, Crypthecodinium spp. (0, 11.1 and 21.6 mg g^−1 lipids) and AA-rich triacylglycerols (3, 14.5 and 24.8 mg g^−1 lipids) from fungi, Mortierella spp. (DHASCO and ARASCO, Martek BioSci. Columbia, Md.) were formulated.
A mixture of 2% alginic acid, 2% polyoxyethylene sorbitan mono-oleate (Tween-80), 1% ascorbic acid, 1% vitamin-E, 1% silicon based anti-foaming agent (all mad e by Sigma Co. MO) and 5% soy lecithin (80% phosphatidylcholine, Archer Daniels Midland Co., Decatur, Ill.) were added to the oils (all additions made by weight). […]
Feeding experiments were terminated on day 46. […] Survivorship was determined based on the initial and final count of larvae in each rearing tank. […]

[2] = test system: striped bass (M. saxatilis) larvae; experiment: Salinity stress test, larval survival; assay type: in vivo, Morone saxatilis; settings: for Survival (%) at 30 min: 30 min high-salinity stress (25 psu)
Method: (§1) A group of 30 larvae was promptly transferred from the 10-liter bucket and immediately divided into three 1-liter beakers (ten larvae in each beaker) containing 25-ppt NaCl in dechlorinated fresh water. These hypersaline exposure conditions were established following preliminary tests in which approximately 50% of the larvae survived after 30 minutes exposure. Larval survival at 0, 15 and 30 minutes was recorded, and five larvae at each time interval were quickly removed and sacrificed on dry ice. Samples were washed with chilled distilled water, dried on paper towel, placed into test tubes and lyophilized to constant weight. The dry weight of each hypersaline-exposed larva was recorded to the nearest 0.1 mg. Samples were kept at −80° C. for subsequent whole larva cortisol analysis.

[3] = test system: striped bass (M. saxatilis) larvae; experiment: Whole larva cortisol (RIA) in high-salinity stress; assay type: in vivo, Morone saxatilis; settings: for Body Cortisol at 30 min: 30 min high-salinity stress
Method: as §1
Cortisol was measured on whole larva using a solid-phase radioimmunoassay (RIA) Coat-A-Count Cortisol kit (DPC, Los Angeles, Calif.) following the manufacturer's procedure. Whole body cortisol was extracted from lyophilized larvae with ethyl ether (Barry et al. 1995). Extraction efficiency was determined by adding 1000 dpm 1,2,6,7-^3H-cortisol to each larva sample (specific activity −67.0 Ci mmol^−1, Amersham, Piscataway, N.J.). Cortisol extracts were reconstituted in 150 μl RIA buffer (included in the cortisol RIA kit). Cortisol concentration was then determined in 100-μl aliquots. Spiking recovery was measured in unknown samples using three spiking dilutions (1, 3, 7 ng, Cortisol Immulite, DPC, Los Angeles, Calif.). […] Two additional 20-μl aliquots were taken to determine ^3H-cortisol recovery.

[4] = test system: white bass, Morone chrysops larvae; experiment: White bass larvae feeding (22 days) on enriched Artemia: growth, survival, total lipid; assay type: in vivo
Method: Larvae rearing. Newly hatched white bass, Morone chrysops larvae were obtained from AquaFutures Inc. (Turners Falls, Mass.). Larvae were grown for 17 days on rotifers, Bracionus plicatilis (2-5 rotifers/ml), which had been cultured on fresh water Chlorella (Martek BioSci. Inc. Columbia, Md.) paste (0.5 g/10^6 rotiferes/day). Larvae were randomly distributed in eighteen 60-liter larval rearing tanks at an initial density of 160 larvae per tank. The tanks were gently aerated and the water volume exchanged 1-2 times per day with biofiltered, U.V treated recirculating water. A 14:10 h light:dark photoperiod was maintained using fluorescent light tubes (Daylight; 40 watts; 800-1200 lux at the water surface). Temperature was maintained at 242° C. and salinity at 2-6 psu. Water quality was monitored daily and levels of total NH3, unionized NH3, NO2 and pH were maintained below 0.2 ppm, 0.001 ppm, 0.3 ppm and at 8.02, respectively. […]
Larvae were then fed twice daily with previously enriched Artemia nauplii, as described above, at a concentration of 50-100 nauplii/liter for the next 22 days.
[…] The dry weight of each larva was recorded to the nearest […] Nettler UMT2, Toledo, Switzerland). […] Survivorship was determined based on the initial and final count of larvae in each rearing tank.

[5] = test system: Gilthead sea bream, Sparus aurata larvae; experiment: Gilthead sea bream larvae fed enriched rotifers and Artemia; assay type: in vivo; settings: 5 to 34-day-old sea bream larvae; DHA enriched vs no DHA containing rotifers and Artemia
Method: Gilthead sea bream, Sparus aurata and European sea bass, Dicentrarchus labrax larvae originated from spawns of locally maintained broodstock were stocked over three days with two-day-old larvae (40,000 larvae tank^−1). Sea bream larvae from day 3 to day 20 were fed twice daily rotifers that were previously enriched on first phototrophically grown Nannochloropsis sp. and then on either Algamac-2000 or PL-Cr. Rotifer and Artemia enrichments and larval feeding were carried out as described in Koven et al. 2001. Sea bream larval growth and survival as a function of enrichment materials was recorded on day 34. European sea bass larvae were maintained in darkness until day-8 when they started feeding on non-enriched Artemia nauplii until day 11. From day-11 to day-21, the larvae were fed twice daily under low illumination (approximately 100-lux) Algamac-2000 or PL-Cr enriched Artemia nauplii.
Total lipids were extracted from triplicate samples. Lipid weight was determined gravimetrically (Mettler UMT2 ±0.1 mg, Toledo, Switzerland) and expressed as percent DW of sample. Fatty acid methyl esters (FAME) were prepared from the whole lipid extract, and the lipid classes separated, saponified and transmethylated as described by Harel et al. (2000).

[6] = dietary DHA 0.0 mg g^−1 D.W, pooled over AA levels

## CCCCC/C=C\C/C=C\C/C=C\C/C=C\CCCC(=O)O [AA, arachidonic acid]
[1]; 3-mg AA g^−1 lipids
  Larval weight: 19.4 mg dry weight
[1]; 14.5-mg AA g^−1 lipids
  Larval weight: 23.7 mg dry weight
[2]; 3 mg g^−1 lipids dietary AA (AA deficient larvae), 25-psu
  Mortality after 30 min of exposure: over 80%
[2]; dietary AA 3.0 mg g^−1 D.W, pooled over DHA levels
  Survival (%) at 30 min: 19.5 ± 1.8^B %
[2]; dietary AA 14.5 mg g^−1 D.W
  Survival (%) at 30 min: 61.8±4.2% and 61.8 ± 4.2^A %
[2]; dietary AA 24.8 mg g^−1 D.W
  Survival (%) at 30 min: 48.7 ± 5.0^A %
[3]; dietary AA 3.0 mg g^−1 D.W
  Body Cortisol at 0 min: 106 ± 10^B pg mg^−1 D.W
  Body Cortisol at 30 min: 171 ± 18^A pg mg^−1 D.W
[3]; dietary AA 14.5 mg g^−1 D.W
  Body Cortisol at 0 min: 142 ± 15^A pg mg^−1 D.W
  Body Cortisol at 30 min: 192 ± 27^A pg mg^−1 D.W
[3]; dietary AA 24.8 mg g^−1 D.W
  Body Cortisol at 0 min: 122 ± 10^AB pg mg^−1 D.W
  Body Cortisol at 30 min: 167 ± 20^A pg mg^−1 D.W
[3]; increasing dietary AA from 3 to 14.5 mg AA g^−1 lipids
  Increase in basal cortisol levels: ~40%
[4]; 25.4% AA of enrichment total fatty acids, 11.1% DHA
  Larval growth (weight): 13.1±1.5 mg dry weight
[4]; no dietary AA, 11.1% DHA of total fatty acids in enrichment lipids
  Larval growth (weight): 21.3±1.8 mg dry weight

## CC/C=C\C/C=C\C/C=C\C/C=C\C/C=C\C/C=C\CCC(=O)O [DHA, docosahexaenoic acid]
[1]; 21.6-mg DHA g^−1 lipids
  Larval weight (mean): 20.4 mg dry weight
[1]; zero dietary DHA
  Larval weight (mean): 22.7 mg dry weight
[2]; [6]
  Survival (%) at 30 min: 30.7 ± 4.9^B %
[2]; dietary DHA 11.1 mg g^−1 D.W
  Survival (%) at 30 min: 48.3 ± 7.2^AB %
[2]; dietary DHA 21.6 mg g^−1 D.W
  Survival (%) at 30 min: 50.99 ± 5.8^A %
[3]; [6]
  Body Cortisol at 0 min: 123 ± 8^A pg mg^−1 D.W
[3]; dietary DHA 0.0 mg g^−1 D.W
  Body Cortisol at 30 min: 155 ± 16^B pg mg^−1 D.W
[3]; dietary DHA 11.1 mg g^−1 D.W
  Body Cortisol at 0 min: 128 ± 16^A pg mg^−1 D.W
  Body Cortisol at 30 min: 182 ± 22^AB pg mg^−1 D.W
[3]; dietary DHA 21.6 mg g^−1 D.W
  Body Cortisol at 0 min: 118 ± 11^A pg mg^−1 D.W
  Body Cortisol at 30 min: 193 ± 26^A pg mg^−1 D.W
[5]
  Improvement of larval growth: ≤ 40%
